Test results from patent publication EP0168709A1, “Process for preparing chlorinated phosphorylmethylcarbonyl derivatives, and intermediates for their preparation” (BAYER AG, priority 1984, dated 1986).

Tests used:
Format in all cases: in vivo
[1] = tested on: Soja-bohnen; experiment: Pre-emergence test, greenhouse; settings: 0,5 kg/ha, rated after three weeks vs untreated control, 0 % = no effect, 100 % = total destruction
Source text: (§1) Pre-emergence-Test - Gewächshaus
(§2) Lösungsmittel: 5 Gewichtsteile Aceton
(§3) Emulgator: 1 Gewichtsteil Alkylarylpolyglykolether
(§4) Zur Herstellung einer zweckmäßigen Wirkstoffzubereitung vermischt man 1 Gewichtsteil Wirkstoff mit der angegebenen Menge Lösungsmittel, gibt die angegebene Menge Emulgator zu und verdünnt das Konzentrat mit Wasser auf die gewünschte Konzentration.
(§5) Samen der Testpflanzen werden in normalen Boden ausgesät und nach 24 Stunden mit der Wirkstoffzubereitung begossen. Dabei hält man die Wassermenge pro Flächeneinheit zweckmäßigerweise konstant. Die Wirkstoffkonzentration in der Zubereitung spielt keine Rolle, entscheidend ist nur die Aufwandmenge des Wirkstoffs pro Flächeneinheit. Nach drei Wochen wird der Schädigungsgrad der Pflanzen bonitiert in % Schädigung im Vergleich zur Entwicklung der unbehandelten Kontrolle. Es bedeuten: • O % = keine Wirkung (wie unbehandelte Kontrolle) 100 % = totale Vernichtung

[2] = tested on: Baum-wolle; experiment: Pre-emergence test, greenhouse; settings: 0,5 kg/ha, rated after three weeks vs untreated control, 0 % = no effect, 100 % = total destruction
Source text: as §1, §2, §3, §4, §5

[3] = tested on: Sorghum halepense; experiment: Pre-emergence test, greenhouse; settings: 0,5 kg/ha, rated after three weeks vs untreated control, 0 % = no effect, 100 % = total destruction
Source text: as §1, §2, §3, §4, §5

[4] = tested on: Testpflanzen; experiment: Pre-emergence test, greenhouse (overall statement); settings: result in words
Source text: as §1, §2, §3, §4, §5

## CC(C)CC(=O)C(Cl)(Cl)P(=O)(OC(C)C)OC(C)C [Beispiel 1, O,O-Di-i-propyl-(1,1-dichlor-4-methyl-2-oxo-pentan)-phosphonsäureester]
[1]
  Schädigungsgrad der Pflanzen (% Schädigung), Soja-bohnen: 0%
[2]
  Schädigungsgrad der Pflanzen (% Schädigung), Baum-wolle: 0%
[3]
  Schädigungsgrad der Pflanzen (% Schädigung), Sorghum halepense: 100%
[4]
  Wirksamkeit: ausgezeichnete Wirksamkeit
